Measurements: doi:10.1101/2020.06.11.145995v1 (biorxiv, 2020)
Like-named read-outs stand apart in the source and are kept apart here.

Assays:
Assay in all cases: biochemical
[1] = target: TRKC (Homo sapiens, UniProt Q16288)
[2] = target: p38-gamma (Homo sapiens, UniProt P53778)
[3] = target: PFTAIRE2 (Homo sapiens, UniProt Q96Q40)
[4] = target: PLK4 (Homo sapiens, UniProt O00444)
[5] = target: NEK4 (Homo sapiens, UniProt P51957)
[6] = target: NEK1 (Homo sapiens, UniProt Q96PY6)
[7] = target: TAOK2 (Homo sapiens, UniProt Q9UL54)
[8] = target: STK36 (Homo sapiens, UniProt Q9NRP7)
STK36, sequence (Q9NRP7 whole entry): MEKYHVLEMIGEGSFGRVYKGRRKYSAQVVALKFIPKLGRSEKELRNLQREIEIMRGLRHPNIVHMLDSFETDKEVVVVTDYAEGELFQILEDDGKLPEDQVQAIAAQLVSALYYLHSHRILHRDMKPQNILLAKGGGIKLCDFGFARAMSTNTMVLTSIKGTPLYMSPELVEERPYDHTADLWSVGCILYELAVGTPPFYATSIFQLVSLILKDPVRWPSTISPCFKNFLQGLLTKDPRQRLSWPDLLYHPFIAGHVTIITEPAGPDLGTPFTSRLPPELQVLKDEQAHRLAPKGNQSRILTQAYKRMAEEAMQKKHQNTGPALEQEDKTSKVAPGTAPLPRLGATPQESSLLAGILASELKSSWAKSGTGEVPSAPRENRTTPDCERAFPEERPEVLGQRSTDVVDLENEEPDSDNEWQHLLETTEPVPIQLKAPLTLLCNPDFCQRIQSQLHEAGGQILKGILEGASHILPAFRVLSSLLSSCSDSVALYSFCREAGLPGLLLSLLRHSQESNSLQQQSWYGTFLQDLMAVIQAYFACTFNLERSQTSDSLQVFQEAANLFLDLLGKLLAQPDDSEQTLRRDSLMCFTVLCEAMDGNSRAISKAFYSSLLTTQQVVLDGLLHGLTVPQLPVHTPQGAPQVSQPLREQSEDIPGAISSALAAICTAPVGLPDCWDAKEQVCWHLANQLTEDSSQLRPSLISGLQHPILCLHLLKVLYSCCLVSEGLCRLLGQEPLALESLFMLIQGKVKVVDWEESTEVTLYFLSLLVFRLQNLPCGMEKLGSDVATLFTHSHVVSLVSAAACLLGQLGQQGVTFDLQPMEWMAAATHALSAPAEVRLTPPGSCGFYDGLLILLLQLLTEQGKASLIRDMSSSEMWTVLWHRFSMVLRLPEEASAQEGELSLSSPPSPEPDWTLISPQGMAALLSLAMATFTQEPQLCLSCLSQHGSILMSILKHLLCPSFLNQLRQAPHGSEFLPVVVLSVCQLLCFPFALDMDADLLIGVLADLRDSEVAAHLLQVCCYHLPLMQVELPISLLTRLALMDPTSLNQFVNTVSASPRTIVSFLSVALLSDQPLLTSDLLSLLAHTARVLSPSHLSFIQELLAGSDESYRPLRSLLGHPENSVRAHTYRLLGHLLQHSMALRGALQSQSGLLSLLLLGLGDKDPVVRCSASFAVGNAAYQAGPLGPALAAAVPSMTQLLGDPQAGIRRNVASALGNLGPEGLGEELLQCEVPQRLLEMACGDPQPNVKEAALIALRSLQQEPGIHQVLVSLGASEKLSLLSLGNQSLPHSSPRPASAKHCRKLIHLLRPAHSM

[9] = target: RIPK4 (Homo sapiens, UniProt P57078)
[10] = target: PCTK3 (Homo sapiens, UniProt Q07002)
[11] = target: SLK (Homo sapiens, UniProt Q9H2G2)
[12] = target: OSR1 (Homo sapiens, UniProt O95747)
[13] = target: PRKCQ (Homo sapiens, UniProt Q04759)
[14] = target: RET(M918T) (Homo sapiens, UniProt P07949, M918T)
[15] = target: ROCK2 (Homo sapiens, UniProt O75116)
[16] = target: PFTK1 (Homo sapiens, UniProt O94921)
[17] = target: RIPK5 (Homo sapiens, UniProt Q6XUX3)
[18] = target: NEK7 (Homo sapiens, UniProt Q8TDX7)
NEK7, sequence (Q8TDX7 whole entry): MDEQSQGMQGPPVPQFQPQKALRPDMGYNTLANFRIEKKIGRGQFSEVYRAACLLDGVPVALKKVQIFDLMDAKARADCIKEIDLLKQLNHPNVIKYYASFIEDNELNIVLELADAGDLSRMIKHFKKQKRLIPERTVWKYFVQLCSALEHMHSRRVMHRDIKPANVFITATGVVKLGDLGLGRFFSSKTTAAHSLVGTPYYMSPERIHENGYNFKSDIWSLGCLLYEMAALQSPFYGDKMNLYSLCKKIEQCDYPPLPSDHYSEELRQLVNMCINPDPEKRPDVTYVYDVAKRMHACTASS

[19] = target: PRP4 (Homo sapiens, UniProt Q13523)
PRP4, sequence (Q13523 whole entry): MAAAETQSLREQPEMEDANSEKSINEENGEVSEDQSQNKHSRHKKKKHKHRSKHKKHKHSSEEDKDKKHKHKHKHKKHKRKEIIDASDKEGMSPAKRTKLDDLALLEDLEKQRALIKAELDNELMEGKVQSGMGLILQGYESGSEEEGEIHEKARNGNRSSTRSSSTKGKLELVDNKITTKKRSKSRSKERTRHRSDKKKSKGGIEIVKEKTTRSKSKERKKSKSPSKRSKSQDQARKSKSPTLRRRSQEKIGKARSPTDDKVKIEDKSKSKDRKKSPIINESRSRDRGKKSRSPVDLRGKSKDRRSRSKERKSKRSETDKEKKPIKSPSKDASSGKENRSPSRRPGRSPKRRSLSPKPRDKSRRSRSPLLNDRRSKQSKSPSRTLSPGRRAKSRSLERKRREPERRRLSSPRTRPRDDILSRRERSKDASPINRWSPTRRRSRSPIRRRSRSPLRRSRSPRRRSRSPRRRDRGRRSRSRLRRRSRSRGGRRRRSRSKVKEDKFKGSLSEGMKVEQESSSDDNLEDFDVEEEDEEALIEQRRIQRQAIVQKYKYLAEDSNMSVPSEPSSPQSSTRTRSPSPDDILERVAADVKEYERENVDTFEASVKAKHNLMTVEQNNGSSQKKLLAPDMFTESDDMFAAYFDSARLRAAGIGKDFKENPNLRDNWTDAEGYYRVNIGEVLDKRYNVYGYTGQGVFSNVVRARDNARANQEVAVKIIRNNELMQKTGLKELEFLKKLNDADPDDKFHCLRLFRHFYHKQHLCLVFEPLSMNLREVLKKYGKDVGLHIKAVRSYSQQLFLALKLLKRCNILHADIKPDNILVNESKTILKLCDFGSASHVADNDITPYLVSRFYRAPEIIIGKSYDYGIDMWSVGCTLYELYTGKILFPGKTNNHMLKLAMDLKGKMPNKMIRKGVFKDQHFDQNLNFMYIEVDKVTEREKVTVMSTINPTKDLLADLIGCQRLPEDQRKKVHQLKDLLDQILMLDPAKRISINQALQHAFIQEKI

[20] = target: TRKA (Homo sapiens, UniProt P04629)
[21] = target: PHKG2 (Homo sapiens, UniProt P15735)
[22] = target: TIE1 (Homo sapiens, UniProt P35590)
[23] = target: SRPK3 (Homo sapiens, UniProt Q9UPE1)
[24] = target: PRKX (Homo sapiens, UniProt P51817)
[25] = target: PRKD2 (Homo sapiens, UniProt Q9BZL6)
PRKD2, sequence (Q9BZL6 whole entry): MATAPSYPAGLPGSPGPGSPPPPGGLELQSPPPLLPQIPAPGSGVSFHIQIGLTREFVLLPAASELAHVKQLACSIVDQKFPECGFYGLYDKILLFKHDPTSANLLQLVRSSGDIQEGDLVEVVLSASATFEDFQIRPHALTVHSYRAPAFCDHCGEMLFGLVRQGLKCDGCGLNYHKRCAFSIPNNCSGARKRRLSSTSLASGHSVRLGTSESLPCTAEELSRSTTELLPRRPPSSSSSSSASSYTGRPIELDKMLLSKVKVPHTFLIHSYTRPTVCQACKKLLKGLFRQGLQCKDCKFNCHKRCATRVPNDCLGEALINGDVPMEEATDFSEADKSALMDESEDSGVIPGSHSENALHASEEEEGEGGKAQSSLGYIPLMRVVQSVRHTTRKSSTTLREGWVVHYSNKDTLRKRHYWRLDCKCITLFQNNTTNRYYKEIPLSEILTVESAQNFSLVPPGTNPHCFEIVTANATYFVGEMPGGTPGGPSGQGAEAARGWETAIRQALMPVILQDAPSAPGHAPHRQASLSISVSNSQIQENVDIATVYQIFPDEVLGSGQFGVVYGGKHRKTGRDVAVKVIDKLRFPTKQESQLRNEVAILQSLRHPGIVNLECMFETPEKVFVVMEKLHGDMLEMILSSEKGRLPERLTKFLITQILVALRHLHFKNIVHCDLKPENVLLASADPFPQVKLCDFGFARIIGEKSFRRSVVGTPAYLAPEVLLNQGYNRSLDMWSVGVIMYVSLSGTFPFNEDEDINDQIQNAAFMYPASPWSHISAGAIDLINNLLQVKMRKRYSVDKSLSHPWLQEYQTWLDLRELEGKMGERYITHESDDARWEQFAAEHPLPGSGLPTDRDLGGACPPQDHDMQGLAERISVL

[26] = target: RSK3 (Homo sapiens, UniProt Q15349)
RSK3, sequence (Q15349 whole entry): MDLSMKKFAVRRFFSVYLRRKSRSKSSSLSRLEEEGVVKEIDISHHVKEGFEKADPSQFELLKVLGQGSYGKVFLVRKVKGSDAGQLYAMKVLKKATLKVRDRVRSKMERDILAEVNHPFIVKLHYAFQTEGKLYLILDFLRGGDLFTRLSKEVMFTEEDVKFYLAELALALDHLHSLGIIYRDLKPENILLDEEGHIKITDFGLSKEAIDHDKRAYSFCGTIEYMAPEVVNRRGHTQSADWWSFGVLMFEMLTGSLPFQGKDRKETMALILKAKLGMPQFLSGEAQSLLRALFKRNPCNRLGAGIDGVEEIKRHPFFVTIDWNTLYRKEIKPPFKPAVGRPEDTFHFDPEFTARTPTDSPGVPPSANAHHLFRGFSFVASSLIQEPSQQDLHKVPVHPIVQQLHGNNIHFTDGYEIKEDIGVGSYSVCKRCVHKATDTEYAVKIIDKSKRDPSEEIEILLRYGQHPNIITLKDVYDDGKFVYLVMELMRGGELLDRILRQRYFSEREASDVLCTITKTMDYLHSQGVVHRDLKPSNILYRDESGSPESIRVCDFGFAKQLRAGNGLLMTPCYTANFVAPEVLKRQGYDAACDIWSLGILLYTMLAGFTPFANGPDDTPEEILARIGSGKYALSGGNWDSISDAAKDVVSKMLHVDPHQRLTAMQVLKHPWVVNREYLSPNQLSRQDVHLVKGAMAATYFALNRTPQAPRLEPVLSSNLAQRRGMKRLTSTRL

[27] = target: YES (Homo sapiens, UniProt P07947)
[28] = target: PAK6 (Homo sapiens, UniProt Q9NQU5)
[29] = target: RET(V804L) (Homo sapiens, UniProt P07949, V804L)
[30] = read-out: CPT-1-70-1 (1μM) % control
[31] = read-out: HYJ-2-002-1 (1μM) % control

PFTAIRE2, sequence (Q96Q40 whole entry): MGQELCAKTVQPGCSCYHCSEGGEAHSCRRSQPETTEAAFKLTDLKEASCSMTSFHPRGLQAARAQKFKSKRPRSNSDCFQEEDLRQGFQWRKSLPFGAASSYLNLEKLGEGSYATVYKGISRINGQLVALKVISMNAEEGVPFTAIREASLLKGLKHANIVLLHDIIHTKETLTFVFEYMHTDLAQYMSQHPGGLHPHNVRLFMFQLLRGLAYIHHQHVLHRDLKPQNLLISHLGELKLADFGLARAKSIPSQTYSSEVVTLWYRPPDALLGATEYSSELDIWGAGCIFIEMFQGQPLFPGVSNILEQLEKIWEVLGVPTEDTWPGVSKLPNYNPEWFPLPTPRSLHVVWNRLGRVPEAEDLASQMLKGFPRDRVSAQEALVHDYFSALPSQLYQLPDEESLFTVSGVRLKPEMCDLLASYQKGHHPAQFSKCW
p38-gamma, sequence (P53778 whole entry): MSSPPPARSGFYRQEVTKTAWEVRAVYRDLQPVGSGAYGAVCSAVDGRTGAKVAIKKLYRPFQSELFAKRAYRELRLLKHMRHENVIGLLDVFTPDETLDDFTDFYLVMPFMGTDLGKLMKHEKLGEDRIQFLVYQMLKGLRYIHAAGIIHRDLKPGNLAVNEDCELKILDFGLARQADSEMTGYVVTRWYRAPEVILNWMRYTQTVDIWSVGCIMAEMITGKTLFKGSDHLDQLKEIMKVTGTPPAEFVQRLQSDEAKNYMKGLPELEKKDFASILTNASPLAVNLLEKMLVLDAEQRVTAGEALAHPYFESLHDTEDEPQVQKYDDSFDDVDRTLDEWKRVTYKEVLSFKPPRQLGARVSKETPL

**Q.** Which remaining activity at 1 µM [1, 30] does the source give for `CN1CCN(c2ccc(Nc3nc(Oc4ccc(NC(=O)CCl)cc4)c4cc[nH]c4n3)cc2)CC1` [CPT1-70-1] here?
**A.** The remaining activity at 1 µM was 61%.

**Q.** And the remaining activity at 1 µM [2, 30]?
**A.** Its remaining activity at 1 µM is 100%.

**Q.** What about the remaining activity at 1 µM [3, 30] of the same compound?
**A.** Its remaining activity at 1 µM is 100%.

**Q.** And the remaining activity at 1 µM [4, 30]?
**A.** Its remaining activity at 1 µM is 23%.

**Q.** What about the remaining activity at 1 µM [5, 30] of the same compound?
**A.** The remaining activity at 1 µM was 100%.

**Q.** What about the remaining activity at 1 µM [6, 30] of the same compound?
**A.** The remaining activity at 1 µM was 100%.

**Q.** What about the remaining activity at 1 µM [7, 30] of the same compound?
**A.** The remaining activity at 1 µM was 65%.

**Q.** What about the remaining activity at 1 µM [8, 30] of the same compound?
**A.** Its remaining activity at 1 µM is 78%.

**Q.** What about the remaining activity at 1 µM [9, 30] of the same compound?
**A.** Its remaining activity at 1 µM is 100%.

**Q.** And the remaining activity at 1 µM [10, 30]?
**A.** Its remaining activity at 1 µM is 97%.

**Q.** And the remaining activity at 1 µM [11, 30]?
**A.** The remaining activity at 1 µM was 77%.

**Q.** And the remaining activity at 1 µM [12, 30]?
**A.** Its remaining activity at 1 µM is 96%.

**Q.** What about the remaining activity at 1 µM [13, 30] of the same compound?
**A.** The remaining activity at 1 µM was 100%.

**Q.** And the remaining activity at 1 µM [14, 30]?
**A.** Its remaining activity at 1 µM is 13%.

**Q.** And the remaining activity at 1 µM [15, 30]?
**A.** Its remaining activity at 1 µM is 26%.

**Q.** And the remaining activity at 1 µM [16, 30]?
**A.** Its remaining activity at 1 µM is 100%.

**Q.** And the remaining activity at 1 µM [17, 30]?
**A.** Its remaining activity at 1 µM is 33%.

**Q.** And the remaining activity at 1 µM [18, 30]?
**A.** The remaining activity at 1 µM was 100%.

**Q.** What about the remaining activity at 1 µM [19, 30] of the same compound?
**A.** Its remaining activity at 1 µM is 90%.

**Q.** And the remaining activity at 1 µM [20, 30]?
**A.** Its remaining activity at 1 µM is 30%.

**Q.** What about the remaining activity at 1 µM [21, 30] of the same compound?
**A.** The remaining activity at 1 µM was 72%.

**Q.** What about the remaining activity at 1 µM [22, 30] of the same compound?
**A.** Its remaining activity at 1 µM is 39%.

**Q.** What about the remaining activity at 1 µM [23, 30] of the same compound?
**A.** The remaining activity at 1 µM was 100%.

**Q.** What about the remaining activity at 1 µM [24, 30] of the same compound?
**A.** The remaining activity at 1 µM was 100%.

**Q.** What about the remaining activity at 1 µM [25, 30] of the same compound?
**A.** The remaining activity at 1 µM was 70%.

**Q.** What about the remaining activity at 1 µM ([26]; read-out: CPT-1-70-1 (1μM) % control, Kin.Dom.1-N-terminal) of the same compound?
**A.** The remaining activity at 1 µM was 66%.

**Q.** What about the remaining activity at 1 µM ([26]; read-out: CPT-1-70-1 (1μM) % control, Kin.Dom.2-C-terminal) of the same compound?
**A.** Its remaining activity at 1 µM is 100%.

**Q.** And the remaining activity at 1 µM [27, 30]?
**A.** The remaining activity at 1 µM was 17%.

**Q.** And the remaining activity at 1 µM [28, 30]?
**A.** The remaining activity at 1 µM was 74%.

**Q.** And the remaining activity at 1 µM [29, 30]?
**A.** The remaining activity at 1 µM was 11%.

**Q.** Which remaining activity at 1 µM [1, 31] does the source give for `CCN1CCN(Cc2ccc(NC(=O)c3ccc(C)c(CCc4cnc5[nH]ccc5c4OC)c3)cc2C(F)(F)F)CC1` [HYJ-2-002-1] here?
**A.** Its remaining activity at 1 µM is 8%.

**Q.** What about the remaining activity at 1 µM [2, 31] of the same compound?
**A.** The remaining activity at 1 µM was 54%.

**Q.** And the remaining activity at 1 µM [3, 31]?
**A.** Its remaining activity at 1 µM is 94%.

**Q.** And the remaining activity at 1 µM [4, 31]?
**A.** Its remaining activity at 1 µM is 100%.

**Q.** What about the remaining activity at 1 µM [5, 31] of the same compound?
**A.** Its remaining activity at 1 µM is 57%.

**Q.** And the remaining activity at 1 µM [6, 31]?
**A.** The remaining activity at 1 µM was 82%.

**Q.** And the remaining activity at 1 µM [7, 31]?
**A.** Its remaining activity at 1 µM is 18%.

**Q.** What about the remaining activity at 1 µM [8, 31] of the same compound?
**A.** Its remaining activity at 1 µM is 2.2%.

**Q.** What about the remaining activity at 1 µM [9, 31] of the same compound?
**A.** Its remaining activity at 1 µM is 100%.

**Q.** What about the remaining activity at 1 µM [10, 31] of the same compound?
**A.** Its remaining activity at 1 µM is 100%.

**Q.** And the remaining activity at 1 µM [11, 31]?
**A.** The remaining activity at 1 µM was 9.8%.

**Q.** And the remaining activity at 1 µM [12, 31]?
**A.** The remaining activity at 1 µM was 93%.

**Q.** What about the remaining activity at 1 µM [13, 31] of the same compound?
**A.** Its remaining activity at 1 µM is 82%.

**Q.** And the remaining activity at 1 µM [14, 31]?
**A.** Its remaining activity at 1 µM is 0.95%.

**Q.** What about the remaining activity at 1 µM [15, 31] of the same compound?
**A.** Its remaining activity at 1 µM is 94%.

**Q.** What about the remaining activity at 1 µM [16, 31] of the same compound?
**A.** The remaining activity at 1 µM was 100%.

**Q.** What about the remaining activity at 1 µM [17, 31] of the same compound?
**A.** Its remaining activity at 1 µM is 86%.

**Q.** And the remaining activity at 1 µM [18, 31]?
**A.** Its remaining activity at 1 µM is 100%.

**Q.** And the remaining activity at 1 µM [19, 31]?
**A.** Its remaining activity at 1 µM is 100%.

**Q.** What about the remaining activity at 1 µM [20, 31] of the same compound?
**A.** Its remaining activity at 1 µM is 6.6%.

**Q.** What about the remaining activity at 1 µM [21, 31] of the same compound?
**A.** The remaining activity at 1 µM was 73%.

**Q.** And the remaining activity at 1 µM [22, 31]?
**A.** Its remaining activity at 1 µM is 4.3%.

**Q.** And the remaining activity at 1 µM [23, 31]?
**A.** Its remaining activity at 1 µM is 90%.

**Q.** And the remaining activity at 1 µM [24, 31]?
**A.** The remaining activity at 1 µM was 78%.

**Q.** What about the remaining activity at 1 µM [25, 31] of the same compound?
**A.** The remaining activity at 1 µM was 42%.

**Q.** What about the remaining activity at 1 µM ([26]; read-out: HYJ-2-002-1 (1μM) % control, Kin.Dom.1-N-terminal) of the same compound?
**A.** Its remaining activity at 1 µM is 42%.

**Q.** And the remaining activity at 1 µM ([26]; read-out: HYJ-2-002-1 (1μM) % control, Kin.Dom.2-C-terminal)?
**A.** Its remaining activity at 1 µM is 73%.

**Q.** And the remaining activity at 1 µM [27, 31]?
**A.** The remaining activity at 1 µM was 0.55%.

**Q.** What about the remaining activity at 1 µM [28, 31] of the same compound?
**A.** The remaining activity at 1 µM was 100%.

**Q.** And the remaining activity at 1 µM [29, 31]?
**A.** The remaining activity at 1 µM was 1.4%.
